From patent publication US10259808B2 (Genentech, Inc., priority 2015, dated 2019)
Structures can show the parent of a compound that is named as a salt.

molecular target: T1, RORc ligand binding domain (Homo sapiens, UniProt P51449); assay: In vitro RORc ligand binding assay (25-[3H]hydroxycholesterol displacement); settings: not given
T1 sequence (P51449 269-508 limits assumed): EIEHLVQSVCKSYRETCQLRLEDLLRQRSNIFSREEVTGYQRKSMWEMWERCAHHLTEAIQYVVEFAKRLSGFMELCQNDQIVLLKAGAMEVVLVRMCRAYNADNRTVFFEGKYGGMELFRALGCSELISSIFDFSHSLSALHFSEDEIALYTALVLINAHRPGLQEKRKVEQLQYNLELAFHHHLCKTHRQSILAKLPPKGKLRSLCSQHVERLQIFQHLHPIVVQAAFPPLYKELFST

Row | Structure (SMILES) | IC50 [nM]
1 | C[C@H]1CC[C@H](c2ccccc2)S(=O)(=O)N1Cc1cc(F)c(C2(NC(=O)c3c[nH]cn3)COC2)cc1F (stereo in doubt) [Example 134, N-[3-[2,5-difluoro-4-[[(3S,6R)-3-methyl-1,1-dioxo-6-phenyl-thiazinan-2-yl]methyl]phenyl]oxetan-3-yl]-1H-imidazole-4-carboxamide] | 50.7
2 | C[C@H]1CC[C@H](c2ccccc2)S(=O)(=O)N1Cc1ccc(C2(C(=O)NC3CCOCC3)CCOCC2)cc1F | 171
3 | C[C@H]1CC[C@H](c2ccccc2)S(=O)(=O)N1Cc1cc(F)c(C2(NCc3cc(=O)[nH]o3)CCOCC2)cc1F [Example 82, 5-[[[4-[2,5-difluoro-4-[[(3S,6R)-3-methyl-1,1-dioxo-6-phenyl-thiazinan-2-yl]methyl]phenyl]tetrahydropyran-4-yl]amino]methyl]isoxazol-3-one] | 5.7
4 | C[C@H]1CC[C@H](c2ccccc2)S(=O)(=O)N1Cc1cc(F)c([C@]2(COc3cnccn3)C[C@](C)(O)C2)cc1F (racemic) [Example 180, 3-[2,5-difluoro-4-[[rac-(3S,6R)-3-methyl-1,1-dioxo-6-phenyl-thiazinan-2-yl]methyl]phenyl]-1-methyl-3-(pyrazin-2-yloxymethyl)cyclobutanol] | 8
5 | C[C@H]1CC[C@H](c2ccccc2)S(=O)(=O)N1Cc1ccc(C2(C(=O)Nc3ncnn3C)CCOCC2)cc1F [Example 7] | 299
6 | C[C@H]1CC[C@H](c2ccccc2)S(=O)(=O)N1Cc1cc(F)c(C2(C(=O)N3CCOCC3)CCOCC2)cc1F [Example 37, [4-[2,5-difluoro-4-[[(3S,6R)-3-methyl-1,1-dioxo-6-phenyl-thiazinan-2-yl]methyl]phenyl]tetrahydropyran-4-yl]-morpholino-methanone] | 106
7 | C[C@H]1CC[C@H](c2ccccc2)S(=O)(=O)N1Cc1cc(F)c(C2(c3n[nH]c(=O)o3)CC(=O)C2)cc1F [Example 119, 5-[1-[2,5-difluoro-4-[[(3S,6R)-3-methyl-1,1-dioxo-6-phenyl-thiazinan-2-yl]methyl]phenyl]-3-oxo-cyclobutyl]-3H-1,3,4-oxadiazol-2-one] | 1.8
8 | CCOC(=O)c1nnc(C2(c3cc(F)c(CN4[C@@H](C)CC[C@H](c5ccccc5)S4(=O)=O)cc3F)CCOCC2)o1 [Example 60, ethyl 5-[4-[2,5-difluoro-4-[[(3S,6R)-3-methyl-1,1-dioxo-6-phenyl-thiazinan-2-yl]methyl]phenyl]tetrahydropyran-4-yl]-1,3,4-oxadiazole-2-carboxylate] | 4.2
9 | C[C@H]1CC[C@H](c2ccccc2)S(=O)(=O)N1Cc1cc(F)c(C2(NCc3cnco3)COC2)cc1F [Example 100, 3-[2,5-difluoro-4-[[(3S,6R)-3-methyl-1,1-dioxo-6-phenyl-thiazinan-2-yl]methyl]phenyl]-N-(oxazol-5-ylmethyl)oxetan-3-amine] | 34.1
10 | C[C@H]1CC[C@H](c2ccccc2)S(=O)(=O)N1Cc1ccc(C2(NCc3ccc(=O)[nH]c3)CCOCC2)cc1F [Example 68, 5-[[[4-[3-fluoro-4-[[(3S,6R)-3-methyl-1,1-dioxo-6-phenyl-thiazinan-2-yl]methyl]phenyl]tetrahydropyran-4-yl]amino]methyl]-1H-pyridin-2-one] | 38.9
11 | C[C@H]1CC[C@H](c2ccccc2)S(=O)(=O)N1Cc1cc(F)c(C2(NCc3ccon3)COC2)cc1F [Example 103, 3-[2,5-difluoro-4-[[(3S,6R)-3-methyl-1,1-dioxo-6-phenyl-thiazinan-2-yl]methyl]phenyl]-N-(isoxazol-3-ylmethyl)oxetan-3-amine] | 1.5
12 | Cc1nc(CNC2(c3ccc(CN4[C@@H](C)CC[C@H](c5ccccc5)S4(=O)=O)c(F)c3)CCOCC2)co1 [Example 78, 4-[3-fluoro-4-[[(3S,6R)-3-methyl-1,1-dioxo-6-phenyl-thiazinan-2-yl]methyl]phenyl]-N-[(2-methyloxazol-4-yl)methyl]tetrahydropyran-4-amine; hydrochloride] | 30.2
13 | C[C@H]1CC[C@H](c2ccccc2)S(=O)(=O)N1Cc1cc(F)c(C2(NCc3ncnn3C)COC2)cc1F [Example 87, 3-[2,5-difluoro-4-[[(3S,6R)-3-methyl-1,1-dioxo-6-phenyl-thiazinan-2-yl]methyl]phenyl]-N-[(2-methyl-1,2,4-triazol-3-yl)methyl]oxetan-3-amine] | 8
14 | CO[C@]1(C)C[C@](c2n[nH]c(=O)o2)(c2cc(F)c(CN3[C@@H](C)CC[C@H](c4ccccc4)S3(=O)=O)cc2F)C1 [Example 156, trans 5-[1-[2,5-difluoro-4-[[(3S,6R)-3-methyl-1,1-dioxo-6-phenyl-thiazinan-2-yl]methyl]phenyl]-3-methoxy-3-methyl-cyclobutyl]-3H-1,3,4-oxadiazol-2-one] | 4

same assay, conditions: IC50 values for RORc

Row | Structure (SMILES) | IC50 [nM]
15 | C[C@H]1CC[C@H](c2ccccc2)S(=O)(=O)N1Cc1cc(F)c([C@]2(c3nn(C)c(=O)o3)C[C@](C)(O)C2)cc1F (racemic) [Example 167] | 19.2
